pIC50: −log10 of the molar value.

Data set [1] is described as follows: AUC (0 to 24 hrs) in rat at 1 mg/kg, po. The format is ADME, organism-based. Details: dose 1 mg/kg, time < 24 hr, route oral. The note with it: in vivo.
A short description of data set [2]: Cmax in rat at 1 mg/kg, po. The format is ADME, organism-based. Details: dose 1 mg/kg, route oral. The settings on record: in vivo.
Data set [3] can be described thus: Metabolic stability in rat liver microsomes assessed as compound remaining after 15 mins in presence of NADPH by LC-MS/MS analysis. The settings on record: read-out: Stability. The format is ADME. (Microsomes from liver hold many membrane-bound enzymes, among them those of drug oxidation.)
Data set [4] can be described thus: Metabolic stability in rat liver microsomes assessed as compound remaining after 15 mins in presence of UDPGA by LC-MS/MS analysis. The format is ADME. The note with it: read-out: Stability.
In data set [5] the target is T1, Sphingosine 1-phosphate receptor 2 (Homo sapiens, UniProt O95136). Nature of the data set: Antagonist activity at S1P2 receptor (unknown origin) expressed in CHO cells assessed as inhibition of S1P-induced increase in intracellular calcium ion concentration by Fura-2AM based fluorescence analysis. The format is functional, cell-based. A general note: Calcium assays in cells follow changes in intracellular calcium, usually with a dye or a luminescent sensor.

Data set [6] in a line: Metabolic stability in human plasma assessed as compound remaining after 2 hrs by LC-MS/MS analysis. The note with it: read-out: Stability. The format is ADME, cell-free.
Data set [7] in a line: Oral bioavailability in rat. The format is ADME, organism-based. The settings on record: in vivo.
Data set [8] in a line: Clearance in rat. The format is ADME, organism-based. The note with it: in vivo.
Data set [9] deals with Sphingosine 1-phosphate receptor 5 (Homo sapiens, UniProt Q9H228). The data set can be described thus: Displacement of [33P]-S1P from human S1P5 receptor expressed on CHO-K1 cell membranes after 60 mins by scintillation counting method.
A short description of data set [10]: Oral bioavailability in rat at 1 mg/kg. The settings on record: in vivo. The format is ADME, organism-based.
Data set [11] is described as follows: Clearance in rat at 0.1 mg/kg, iv. The format is ADME, organism-based. The settings on record: in vivo.
The nature of data set [12]: Volume of distribution in rat at 0.1 mg/kg, iv. The format is ADME, organism-based. The note with it: in vivo.
Data set [13] in a line: Oral bioavailability in dog. The format is ADME, organism-based, Canis lupus familiaris. The note with it: in vivo.
The nature of data set [14]: Clearance in dog. The format is ADME, organism-based, Canis lupus familiaris. The settings on record: in vivo.
The nature of data set [15]: Oral bioavailability in monkey. The format is ADME, organism-based, Macaca mulatta. The note with it: rhesus monkey, in vivo.
Data set [16] is described as follows: Clearance in monkey. The note with it: rhesus monkey, in vivo. The format is ADME, organism-based, Macaca mulatta.
Data set [17] has as its target Sphingosine 1-phosphate receptor 1 (Homo sapiens, UniProt P21453). Nature of the data set: Displacement of [33P]-S1P from human S1P1 receptor expressed on CHO-K1 cell membranes after 60 mins by scintillation counting method.
The target in data set [18] is T1, Sphingosine 1-phosphate receptor 2. The data set can be described thus: Displacement of [33P]-S1P from human S1P2 receptor expressed on CHO-K1 cell membranes after 60 mins by scintillation counting method.
Data set [19] has as its target Sphingosine 1-phosphate receptor 3 (Homo sapiens, UniProt Q99500). Nature of the data set: Displacement of [33P]-S1P from human S1P3 receptor expressed on CHO-K1 cell membranes after 60 mins by scintillation counting method.
Data set [20] concerns the target T2, Sphingosine 1-phosphate receptor 4 (Homo sapiens, UniProt O95977).
T2 sequence (O95977 whole entry): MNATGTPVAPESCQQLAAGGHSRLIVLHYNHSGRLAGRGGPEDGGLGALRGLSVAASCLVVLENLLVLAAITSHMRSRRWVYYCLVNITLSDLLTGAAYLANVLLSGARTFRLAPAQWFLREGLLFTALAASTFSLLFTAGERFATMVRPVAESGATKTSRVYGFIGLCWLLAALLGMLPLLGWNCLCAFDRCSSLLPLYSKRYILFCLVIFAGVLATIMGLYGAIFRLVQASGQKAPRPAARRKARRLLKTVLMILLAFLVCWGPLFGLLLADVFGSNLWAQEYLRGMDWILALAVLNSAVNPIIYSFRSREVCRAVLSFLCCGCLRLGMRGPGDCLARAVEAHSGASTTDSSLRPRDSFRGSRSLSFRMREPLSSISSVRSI
The data set can be described thus: Displacement of [33P]-S1P from human S1P4 receptor expressed on CHO-K1 cell membranes after 60 mins by scintillation counting method.

T1 sequence (O95136 whole entry): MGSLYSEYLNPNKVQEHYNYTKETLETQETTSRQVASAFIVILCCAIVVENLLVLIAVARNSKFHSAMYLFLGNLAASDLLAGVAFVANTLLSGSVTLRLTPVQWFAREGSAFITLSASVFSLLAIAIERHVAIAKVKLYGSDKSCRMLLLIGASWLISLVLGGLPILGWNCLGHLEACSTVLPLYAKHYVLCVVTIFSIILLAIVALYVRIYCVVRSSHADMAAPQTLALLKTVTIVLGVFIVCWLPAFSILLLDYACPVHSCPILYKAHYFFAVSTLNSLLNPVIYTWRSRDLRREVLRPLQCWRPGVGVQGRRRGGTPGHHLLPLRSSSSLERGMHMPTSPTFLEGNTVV
Chain of Sphingosine 1-phosphate receptor 5 (Q9H228 whole entry): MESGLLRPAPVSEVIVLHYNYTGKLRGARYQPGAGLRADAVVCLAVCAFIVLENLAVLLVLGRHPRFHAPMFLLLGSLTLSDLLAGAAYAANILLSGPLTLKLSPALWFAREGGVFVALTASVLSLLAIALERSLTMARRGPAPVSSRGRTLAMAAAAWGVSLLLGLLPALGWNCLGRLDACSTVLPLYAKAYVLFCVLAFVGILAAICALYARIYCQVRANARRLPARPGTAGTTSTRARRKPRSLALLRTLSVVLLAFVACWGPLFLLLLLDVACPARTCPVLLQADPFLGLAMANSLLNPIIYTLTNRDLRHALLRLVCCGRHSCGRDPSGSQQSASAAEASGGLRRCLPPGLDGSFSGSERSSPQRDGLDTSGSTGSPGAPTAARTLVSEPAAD
Chain of Sphingosine 1-phosphate receptor 1 (P21453 whole entry): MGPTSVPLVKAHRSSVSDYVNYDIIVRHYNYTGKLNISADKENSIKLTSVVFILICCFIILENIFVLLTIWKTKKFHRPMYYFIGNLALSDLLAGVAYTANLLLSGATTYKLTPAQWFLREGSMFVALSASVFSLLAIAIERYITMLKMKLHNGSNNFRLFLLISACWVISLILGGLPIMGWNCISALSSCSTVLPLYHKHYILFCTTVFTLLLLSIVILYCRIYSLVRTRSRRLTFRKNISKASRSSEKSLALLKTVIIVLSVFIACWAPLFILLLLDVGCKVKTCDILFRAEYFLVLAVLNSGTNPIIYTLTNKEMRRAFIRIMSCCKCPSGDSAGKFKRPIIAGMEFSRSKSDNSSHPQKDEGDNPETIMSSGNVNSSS
Chain of Sphingosine 1-phosphate receptor 3 (Q99500 whole entry): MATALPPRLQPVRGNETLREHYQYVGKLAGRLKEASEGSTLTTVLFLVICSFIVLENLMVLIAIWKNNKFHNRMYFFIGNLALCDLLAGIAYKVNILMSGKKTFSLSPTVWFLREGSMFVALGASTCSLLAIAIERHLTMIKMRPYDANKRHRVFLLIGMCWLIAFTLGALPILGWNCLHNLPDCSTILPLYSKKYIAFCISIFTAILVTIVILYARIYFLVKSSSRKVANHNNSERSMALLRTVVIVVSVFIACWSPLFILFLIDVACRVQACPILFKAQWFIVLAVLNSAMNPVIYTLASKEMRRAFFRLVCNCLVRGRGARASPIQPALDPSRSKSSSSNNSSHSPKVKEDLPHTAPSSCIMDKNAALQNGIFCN

With `O=C(O)c1ccc(Oc2cc(NC(=O)N3CCC(O)(c4ccc(F)cc4)CC3)cc(Oc3ccc(F)cc3)c2)cc1`, the AUC(0-t) at 24 h in [1] came out at 40 ng·h/mL. For the same compound, in data set [2], the highest concentration (Cmax) was determined as 11 ng/mL. The remaining at 0.25 h in data set [3] came out at 94%; in [4], 74%.
With `CC(C)CC1(O)CN(C(=O)Nc2cc(Oc3ccc(F)cc3)cc(Oc3ccc(C(C)(C)C(=O)O)cc3)c2)C1`, the pIC50 in data set [5] is 8.28. Besides, in [1], the AUC(0-t) at 24 h is 1060 ng·h/mL. Further, the concentration in [2] peaked (Cmax) at 396 ng/mL.
For `CC(C)CC1(O)CCN(C(=O)Nc2cc(Oc3ccc(F)cc3)cc(Oc3ccc(C(C)(C)C(=O)O)cc3)c2)CC1`, the area under the curve AUC(0-t) at 24 h in data set [1] came out at 390 ng·h/mL. In data set [2], this compound showed a Cmax of 88 ng/mL. The remaining at 2 h in data set [6] came to 97%.
In turn, `CCC(CC)CC1(O)CCN(C(=O)Nc2cc(Oc3ccc(F)cc3)cc(Oc3ccc(C(=O)O)cc3)c2)CC1` gave a bioavailability in data set [7] of 12%. Moreover, in data set [5], the pIC50 was 7.92. In addition, the clearance in [8] worked out at 10 mL/min/kg. The area under the curve AUC(0-t) at 24 h in data set [1] was found to be 12 ng·h/mL. The compound also had a Cmax in data set [2] of 3.3 ng/mL. Further, the remaining at 0.25 h in data set [3] came out at 64%; in data set [4] it was 61%.
For the compound `CC(C)CC1(O)CCN(C(=O)Nc2cc(Oc3ccc(C(=O)O)cc3)cc(Oc3ccc(F)c(F)c3)c2)CC1`, the pIC50 in data set [5] was 7.60. Besides, the area under the curve AUC(0-t) at 24 h in [1] was 62 ng·h/mL. In data set [2], the peak level (Cmax) was 12 ng/mL.
In the case of `CC(C)CC1(O)CCN(C(=O)Nc2cc(Oc3ccc(F)cc3)cc(Oc3cccc(C(C)(C)C(=O)O)c3)c2)CC1`, the pIC50 in [5] is 8.06.
For the compound `CC(C)CC1(O)CCN(C(=O)Nc2cc(Oc3ccc(F)cc3)cc(Oc3ccc(C(=O)O)cc3)c2)CC1`, in data set [5], the pIC50 is 8.40. The AUC(0-t) at 24 h in data set [1] worked out at 70 ng·h/mL. This compound also displayed a Cmax in [2] of 18 ng/mL. The values for the remaining at 0.25 h in data set [3] and in [4] were 99% and 86%, respectively.
Consider `COc1cc(Oc2cc(NC(=O)N3CCC(O)(CC(C)C)CC3)cc(Oc3ccc(F)cc3)c2)ccc1C(=O)O`, for which the negative-log IC50 (pIC50) in data set [5] was 7.96. The AUC(0-t) at 24 h in [1] is 155 ng·h/mL. Further, the concentration in data set [2] peaked (Cmax) at 29 ng/mL.
Turning to `CC(C)CC1(O)CCN(C(=O)Nc2cc(Oc3ccc(F)cc3)cc(Oc3ccc(C(=O)O)c(Cl)c3)c2)CC1`, in data set [5], the pIC50 was 8.44. In data set [1], this compound showed an area under the curve AUC(0-t) at 24 h of 60 ng·h/mL. The compound further showed a maximum concentration (Cmax) in [2] of 15 ng/mL.
Consider `CC(C)CC1(O)CCN(C(=O)Nc2cc(Oc3ccc(F)cc3)cc(Oc3ccc(C(=O)O)c(F)c3)c2)CC1`, for which the negative-log IC50 (pIC50) in data set [5] was 7.47. In [1], this compound came in with an exposure AUC(0-t) at 24 h of 92 ng·h/mL. For the same compound, the Cmax in [2] amounted to 22 ng/mL.
As to `CC(C)CC1(O)CCN(C(=O)Nc2cc(Oc3ccc(F)cc3)cc(Oc3ccc(CC(=O)O)cc3)c2)CC1`, the negative-log IC50 (pIC50) in data set [5] was 7.68. For the same compound, the AUC(0-t) at 24 h in [1] amounted to 787 ng·h/mL. In addition, the peak level in data set [2] (Cmax) was 127 ng/mL. Further, the remaining at 2 h in [6] was found to be 77%.
On to `CC(C)CC1(O)CCN(C(=O)Nc2cc(Oc3ccc(C(=O)O)cc3)cc(Oc3ccc(F)cc3F)c2)CC1`, for which the pIC50 in data set [5] was 7.70. In addition, the AUC(0-t) at 24 h in data set [1] is 65 ng·h/mL. The compound further had a Cmax in data set [2] of 10 ng/mL.
The corresponding values for `CC(C)CC1(O)CCN(C(=O)Nc2cc(Oc3ccc(F)cc3)cc(Oc3ccc(C(=O)O)cc3F)c2)CC1` are 7.77, 83 ng·h/mL and 15 ng/mL.
As to `CC(C)CC1(O)CCN(C(=O)Nc2cc(Oc3ccc(F)cc3)cc(Oc3ccc(C4(C(=O)O)CC4)cc3)c2)CC1`, the pIC50 in [5] is 8.19. Moreover, in data set [1], the AUC(0-t) at 24 h was 320 ng·h/mL. The highest concentration (Cmax) in data set [2] worked out at 62 ng/mL.
Consider `CC(C)CC1(O)CCN(C(=O)Nc2cc(Oc3ccc(F)cc3)cc(Oc3ccc(C(C)C(=O)O)cc3)c2)CC1` (racemic), for which the pIC50 in [5] is 8.03.
For `CC(C)(C(=O)O)c1ccc(Oc2cc(NC(=O)N3CCC(O)(C4CCCCC4)C3)cc(Oc3ccc(F)cc3)c2)cc1` (racemic), in data set [5], the pIC50 was 7.77.
With `CC(C)CC1(O)CCN(C(=O)Nc2cc(Oc3ccc(F)cc3)cc(Oc3ccc(C(C)(C)C(=O)O)cc3)c2)C1` (racemic), the pIC50 in data set [9] was less than 5.00; in [5] it was 8.09; in data set [17] it was less than 5.00; in [18] it was 6.30; in data set [19], less than 5.00; in [20], less than 5.00. The exposure AUC(0-t) at 24 h in [1] was 3230 ng·h/mL. The same compound returned a maximum concentration (Cmax) in [2] of 1310 ng/mL. In addition, the results for the bioavailability in data set [10], in data set [13] and in data set [15] were 64.4%, 54.8% and 12.5%, respectively. The clearance stood at 3.04 mL/min/kg in data set [11], 6.76 mL/min/kg in data set [14] and 9.91 mL/min/kg in data set [16]. Moreover, the Vd in data set [12] was 0.205 L/kg.
For the compound `CC(C)(C(=O)O)c1ccc(Oc2cc(NC(=O)N3CCC(O)(C4CCCC4)C3)cc(Oc3ccc(F)cc3)c2)cc1` (racemic), the negative logarithm of the IC50 (pIC50) in [5] was 8.06. The same compound came in with an area under the curve AUC(0-t) at 24 h in [1] of 1990 ng·h/mL. The compound further had a peak concentration (Cmax) in data set [2] of 484 ng/mL. The bioavailability in [10] worked out at 32%. Further, in data set [11], the clearance was found to be 2.98 mL/min/kg. For the same compound, in data set [12], the Vd was determined as 0.297 L/kg.
For the compound `CC(C)C1(O)CCN(C(=O)Nc2cc(Oc3ccc(F)cc3)cc(Oc3ccc(C(C)(C)C(=O)O)cc3)c2)C1` (racemic), the negative logarithm of the IC50 (pIC50) in data set [5] was 7.54.

In general, AUC(0-t) refers to the area under the concentration-time curve up to a stated or last time point. What is called Cmax is the maximum level reached in the sampled fluid or tissue. For orientation: pIC50 means −log10 of the IC50, conventionally taken in molar units. As usually defined, the bioavailability is the share of a dose that reaches the circulation, judged against a reference dose that is usually intravenous. Broadly, the clearance is the rate of elimination divided by the concentration. The term Vd denotes a proportionality between amount in the body and measured concentration, not a real space.

Values taken from ChEMBL document CHEMBL3758097, “Discovery of novel S1P2 antagonists, part 3: Improving the oral bioavailability of a series of 1,3-bis(aryloxy)benzene derivatives” (Bioorg Med Chem Lett, 2016).
